Measurements published in patent US4985416A, “Platinum complexes of azodiazonium dyes as anti-tumor agents” (priority 1989, dated 1991).
Where two headings read alike, the source gives them in different places.

What was measured:
carcinoma cells = settings: in words; Bernal et al.; cited from earlier work
Lewis Lung = assay: Tumor growth delay in vivo, Lewis Lung solid tumor; parameters: species or system mice (C57BL/6J); settings: day 7, to reach 500 mm^3
Protocol: (§1) Anti-tumor activity of the complex prepared as described above was determined in vivo in mice by comparative tests against Fast Black dye alone and against Cis-diamminedichloroplatinum (CDDP) using the following procedure Two different solid tumor cell lines were employed, Lewis Lung and FSaII, 2×10^6 tumor cells being implanted i.m. into the legs of male C57BL/6J and C3H/He mice 8 to 10 weeks of age, respectively. The drugs were administered i.p. on day 7 after tumor implantation (when tumors were about 100 mm^3 in volume), in solution (0.5%) in 0.9% phosphate-buffered saline as carrier. Tumor growth delay is reported in Table I below as the difference in number of days for the treated tumors to reach 500 mm^3 in volume and the number of days required for untreated control tumors to reach the same volume (n=14 in each group). Tumor volume was calculated as a hemiellipsoid. In the control animals, tumors reached the specified volume in 12-14 days.

FSaII = assay: Tumor growth delay in vivo, FSaII solid tumor; parameters: species or system mice (C3H/He); settings: day 7, to reach 500 mm^3
Protocol: as §1

Lewis Lung carcinoma = assay: Anti-metastatic activity: lung metastases from Lewis Lung carcinoma; format: in vivo, mice; settings: day 7, lungs day 20, control 14
Protocol: as §1
Anti-metastatic activity was determined by implanting Lewis Lung carcinoma cells in the legs of mice as described above, administering drugs in the doses indicated in Table II below, i.p. on day 7 after implantation and removing the lungs on day 20 followed by counting metastases. Control mice received no drug (n=14 in each group).

FSaII fibrosarcoma cells [1] = assay: Enhancement of killing effect of heat treatment (hyperthermia) in vivo: growth delay; parameters: species or system mice
Protocol: FSaII fibrosarcoma cells (2×10^6 FSaII cells) were implanted in the legs of mice: the drug was administered i.p. when the tumor had grown to approximately 50 mm^3 in volume, using 0.9% phosphate buffered saline as carrier, as described above in the doses shown in Table 3 below. Fifteen minutes later radiation was delivered locally to the tumor bearing limb as a single dose of 10, 20, or 30 gray as indicated in the table. No anesthetic was used. The growth of each tumor was measured thrice weekly until it reached a volume of 500 mm^3. Each treatment group had 7 animals and the procedure was repeated 3 times. Tumor volume was calculated as a hemiellipsoid, and in the untreated control animals, tumors reached the specified volume in 14.0 days. The delay is reported in terms of the mean number of additional days beyond the control required for the tumors in each group to reach the specified volume. The results were as follows:
The complex was also found to be effective in enhancing the killing effect of heat treatment (hyperthermia) in vivo. The procedure described in the preceding paragraph was carried out except that there was substituted for the single radiation dose a heat treatment by immersion of the tumor-bearing limb in a water bath at 44° C. for 30 minutes to raise the tumor temperature to 43° C. The means number of days delay (n=14) was as follows: […]

FSaII fibrosarcoma cells [2] = format: in vivo, mice; settings: 300 mg/kg i.p.
Protocol: Fifteen minutes later radiation was delivered locally to the tumor bearing limb as a single dose of 10, 20, or 30 gray as indicated in the table. No anesthetic was used. The growth of each tumor was measured thrice weekly until it reached a volume of 500 mm^3. […] The delay is reported in terms of the mean number of additional days beyond the control required for the tumors in each group to reach the specified volume.

EMT6 cells = assay: Entry of platinum into EMT6 cells; format: cell-based; settings: in words

## COC(=O)c1ccccc1-c1c2ccc(=N)cc-2oc2cc(N)ccc12 [Rhodamine 123]
Carcinoma cells
  selective toxicity toward carcinoma cells: selectively toxic toward carcinoma cells

## N.N.[Cl][Pt][Cl] [CDDP, Cis-diamminedichloroplatinum (II)]
Lewis Lung; 5 mg/kg i.p.
  Mean No. Days Delay (Lewis Lung): < 1 days
Lewis Lung; 10 mg/kg i.p.
  Mean No. Days Delay (Lewis Lung): < 1 days
FSaII; 5 mg/kg i.p.
  Mean No. Days Delay (FSaII): 4.4 days
FSaII; 10 mg/kg i.p.
  Mean No. Days Delay (FSaII): 8.0 days
Lewis Lung carcinoma; 10 mg/kg i.p.
  Mean No. of Metastases per Animal: 10.7 Metastases per Animal
FSaII fibrosarcoma cells [1]; 5 mg/kg, heat 30 min at 43° C., heat alone 1.4
  Mean No. Days Delay: 5.9 days
FSaII fibrosarcoma cells [1]; 5 mg/kg, no heat
  Mean No. Days Delay: 4.4 days

## COc1cc([N+]#N)c(OC)cc1N=Nc1ccc([N+](=O)[O-])cc1 [Fast Black]
Lewis Lung; 250 mg/kg i.p.
  Mean No. Days Delay (Lewis Lung): 2.0 days
FSaII; 250 mg/kg i.p.
  Mean No. Days Delay (FSaII): 2.7 days
Lewis Lung carcinoma; 50 mg/kg i.p.
  Mean No. of Metastases per Animal: 13.3 Metastases per Animal
Lewis Lung carcinoma; 100 mg/kg i.p.
  Mean No. of Metastases per Animal: 12.3 Metastases per Animal
Lewis Lung carcinoma; 250 mg/kg i.p.
  Mean No. of Metastases per Animal: 11.0 Metastases per Animal
FSaII fibrosarcoma cells [2]; 0 Gray
  Mean No. Days Delay: 3.0 days
FSaII fibrosarcoma cells [2]; 10 Gray 15 min later, radiation alone 1.8
  Mean No. Days Delay: 7.0 days
FSaII fibrosarcoma cells [2]; 20 Gray 15 min later, radiation alone 6.3
  Mean No. Days Delay: 12.6 days
FSaII fibrosarcoma cells [2]; 30 Gray 15 min later, radiation alone 8.8
  Mean No. Days Delay: 16.2 days
FSaII fibrosarcoma cells [1]; 300 mg/kg, heat 30 min at 43° C., heat alone 1.4
  Mean No. Days Delay: 4.4 days
FSaII fibrosarcoma cells [1]; 300 mg/kg, no heat
  Mean No. Days Delay: 2.7 days

## [Cl][Pt-2]([Cl])([Cl])[Cl].[K+].[K+] [potassium tetracloroplatinate, potassium tetrachloroplatinate]
EMT6 cells
  entry of platinum into the cells: only very poor entry of platinum into the cells
